pIC50: −log10 of the molar value.
Tests used:
CRM1 = target: T1, CRM1 (Homo sapiens, UniProt O14980); assay: Inhibition of nuclear export, RevGFP assay in U2OS-RevGFP cells; format: cell-based; details: approximately 1 hour incubation
T1 construct: endogenous in cells; host or cells: U2OS cells stably expressing Rev-GFP
Experimental: The inhibition of CRM1 mediated nuclear export by compounds of the invention was determined in a RevGFP assay. Rev is a protein from human immunodeficiency virus type 1 (HIV-1) and contains a nuclear export signal (NES) in its C-terminal domain and a nuclear localization signal (NLS) in its N-terminal domain. Nuclear export of Rev protein is dependent on the classical NES/CRM1 pathway (Neville et al, 1997, Kau et al, 2003).
In this assay, U2OS-RevGFP cells were seeded onto clear-bottom, black, 384-well plates the day before the experiment. Compounds were serially diluted 1:2 starting from 40 μM in a separate 384-well plate in DMEM, and then transferred onto cells. Cells were incubated with compound for approximately 1 hour before fixation with 3.7% formaldehyde and nuclei staining with Hoechst 33258. The amount of GFP in cell nuclei was measured and compound IC50s were determined (Kau et al, 2003).

3T3 cells = assay: MTT cell proliferation assay; format: cell-based; details: Mus musculus, NIH3T3, approximately 64-72 hours
Experimental: (§1) The MTT cell proliferation assay was used to study the cytotoxic properties of the compounds. The assay was performed according to the method described by Roche Molecular Biochemicals, with minor modifications. The assay is based on the cleavage of the tetrazolium salt, MTT, in the presence of an electron-coupling reagent. The water-insoluble formazan salt produced must be solubilized in an additional step. Cells grown in a 96-well tissue culture plate were incubated with the MTT solution for approximately 4 hours. After this incubation period, a water-insoluble formazan dye formed. After solubilization, the formazan dye was quantitated using a scanning multi-well spectrophotometer (ELISA reader). […] The cells were seeded at 5,000-10,000 cells in each well of 96-well plate in 100 μL of fresh culture medium and were allowed to attach overnight. The stock solutions of the compounds were diluted in 100 μL cell culture medium to obtain eight concentrations of each test compound, ranging from 1 nM to 30 μM. […] All optical densities were measured at 490 nm using a Vmax Kinetic Microplate Reader (Molecular Devices). In most cases, the assay was performed in duplicate and the results were presented as a mean percent inhibition to the negative control±SE. The following formula was used to calculate the percent of inhibition: Inhibition (%)=(1−(ODo/OD))×100.
(§2) The compounds were tested against Z138, MM1S and 3T3 cells. The Z138 cell line is a mature B-cell acute lymphoblastic leukemia cell line derived from a patient with chronic lumphocytic leukemia. The MM1S cell line was established from the peripheral blood of a human multiple myeloma patient. 3T3 cells are standard fibroblast cells; they were originally isolated from Swiss mouse embryo tissue.

MM1S cells = assay: MTT cell proliferation assay; format: cell-based; details: Homo sapiens, MM1.S, approximately 64-72 hours
Experimental: as §1, §2

Z138 cells = assay: MTT cell proliferation assay; format: cell-based; details: Homo sapiens, Z-138, approximately 64-72 hours
Experimental: as §1, §2

MDA-MB-468 xenograft = MDA-MB-468 xenograft model; format: in vivo, mouse; details: 10 mg/kg PO once daily, CB-17 SCID mice, compared to vehicle
Experimental: MDA-MB-468 (ATCC #HTB-102) breast adenocarcinoma cells were obtained from ATCC. These cells were grown in high glucose DMEM medium supplemented with 10% fetal bovine serum, 1% penicillin and streptomycin, and 2 mM L-Glutamine. Cells were sub-cultured by dilution at a ratio of 1:4. MDA-MB-468 cells were harvested by trypsinization and counted using a hemocytometer. Cells were resuspended in PBS at a concentration of 4×10^8 cells per mL. Cells were placed on ice and mixed with an equal volume of Matrigel (BD Biosciences CB-40234). Twenty-two (22) CB-17 SCID mice were inoculated sub-cutaneously in the left flank with 4×10^7 MDA-MB-468 cells. Treatment was initiated when the tumors reached a mean volume of ˜100 mm^3. […] Animals' weights and condition were recorded daily, and tumors were measured on Mondays, Wednesdays, and Fridays.

T1 sequence (O14980 whole entry): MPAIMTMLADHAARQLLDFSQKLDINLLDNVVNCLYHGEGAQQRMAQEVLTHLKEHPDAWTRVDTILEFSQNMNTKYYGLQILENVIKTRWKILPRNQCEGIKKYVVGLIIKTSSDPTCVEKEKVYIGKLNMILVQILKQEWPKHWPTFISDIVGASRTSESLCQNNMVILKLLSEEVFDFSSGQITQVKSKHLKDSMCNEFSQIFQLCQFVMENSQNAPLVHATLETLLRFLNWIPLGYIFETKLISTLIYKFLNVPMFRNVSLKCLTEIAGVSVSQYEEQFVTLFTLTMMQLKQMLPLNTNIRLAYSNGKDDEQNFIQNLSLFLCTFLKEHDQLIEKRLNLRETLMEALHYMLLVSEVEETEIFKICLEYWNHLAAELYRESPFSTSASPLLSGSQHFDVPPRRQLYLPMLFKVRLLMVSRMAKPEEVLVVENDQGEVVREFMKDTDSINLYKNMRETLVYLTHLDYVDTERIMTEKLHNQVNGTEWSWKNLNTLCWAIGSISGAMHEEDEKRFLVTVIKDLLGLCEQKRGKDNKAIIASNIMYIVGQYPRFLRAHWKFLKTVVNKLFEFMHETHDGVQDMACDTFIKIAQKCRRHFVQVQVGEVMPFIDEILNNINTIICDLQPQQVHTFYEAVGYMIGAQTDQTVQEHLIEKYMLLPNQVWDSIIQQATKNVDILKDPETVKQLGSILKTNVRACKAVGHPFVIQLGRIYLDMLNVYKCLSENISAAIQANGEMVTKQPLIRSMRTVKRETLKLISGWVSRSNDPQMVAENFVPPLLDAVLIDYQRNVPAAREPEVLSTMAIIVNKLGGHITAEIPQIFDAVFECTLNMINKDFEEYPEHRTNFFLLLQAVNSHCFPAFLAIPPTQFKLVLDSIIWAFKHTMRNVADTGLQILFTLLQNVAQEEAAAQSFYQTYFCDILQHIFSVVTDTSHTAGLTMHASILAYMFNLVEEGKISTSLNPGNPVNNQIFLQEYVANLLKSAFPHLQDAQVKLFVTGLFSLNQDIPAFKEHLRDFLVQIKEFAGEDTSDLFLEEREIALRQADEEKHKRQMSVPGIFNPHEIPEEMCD

SMILES	pIC50 (CRM1)	pIC50 (3T3 cells)	pIC50 (MM1S cells)	pIC50 (Z138 cells)	mean tumor volume (MDA-MB-468 xenograft)
N#Cc1cncc(/C(=C\n2cnc(-c3cc(C(F)(F)F)cc(C(F)(F)F)c3)n2)C(N)=O)c1 [Compound 148, (E)-3-(3-(3,5-bis(trifluoromethyl)phenyl)-1H-1,2,4-triazol-1-yl)-2-(5-cyanopyridin-3-yl)acrylamide]	> 7.00	< 4.52	> 7.00	> 7.00	
NC(=O)/C(=C/n1cnc(-c2cc(C(F)(F)F)cc(C(F)(F)F)c2)n1)c1cnc2ccccc2c1 [Compound 149, (E)-3-(3-(3,5-bis(trifluoromethyl)phenyl)-1H-1,2,4-triazol-1-yl)-2-(quinolin-3-yl)acrylamide]	> 7.00	< 4.52	> 7.00	> 7.00	mean tumor volume was reduced
NC(=O)/C(=C\n1cnc(-c2cc(C(F)(F)F)cc(C(F)(F)F)c2)n1)c1ccnc(F)c1 [Compound 155, (Z)-3-(3-(3,5-bis(trifluoromethyl)phenyl)-1H-1,2,4-triazol-1-yl)-2-(2-fluoropyridin-4-yl)acrylamide]	> 7.00	5.30 to 7.00	> 7.00	> 7.00	
NC(=O)/C(=C\n1cnc(-c2cc(C(F)(F)F)cc(C(F)(F)F)c2)n1)c1ccc(Cl)nc1 [Compound 156, (Z)-3-(3-(3,5-bis(trifluoromethyl)phenyl)-1H-1,2,4-triazol-1-yl)-2-(6-chloropyridin-3-yl)acrylamide]	5.30 to 7.00	< 4.52	5.30 to 7.00	5.30 to 7.00	
